Assay results published in patent publication US8198302B2 (OXiGENE, Inc., priority 2004, dated 2012).

What was measured:
tubulin = settings: cited from earlier work
[1] = cited from earlier work
[2] = molecular target: T1, Horseradish peroxidase (HRP) (Armoracia rusticana, UniProt P00433); experiment: Peroxidase-mediated activation of catechols (HPLC loss of peak area); assay type: biochemical; settings: for Relative Activation (% Control): relative to non-catechol control = 100; for Slope/Hrp: slope divided by HRP concentration (ug/ml): corrected disappearance
T1 construct: purchased Sigma P6782
T1 sequence (P00433 31-338 limits assumed): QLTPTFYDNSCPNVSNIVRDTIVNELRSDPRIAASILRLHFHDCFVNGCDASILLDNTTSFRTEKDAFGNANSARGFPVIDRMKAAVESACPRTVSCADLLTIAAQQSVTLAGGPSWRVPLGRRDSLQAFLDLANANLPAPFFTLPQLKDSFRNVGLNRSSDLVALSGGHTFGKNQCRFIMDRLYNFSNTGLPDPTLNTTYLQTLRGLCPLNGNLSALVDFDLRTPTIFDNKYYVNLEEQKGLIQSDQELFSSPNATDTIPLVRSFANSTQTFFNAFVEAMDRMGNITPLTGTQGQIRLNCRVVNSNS
Procedure: Methods: catechols were dissolved in DMSO immediately prior to assay (10 mM). HRP (Sigma, P6782, 1000 units/mg), was dissolved in phosphate buffered saline (PBS) at a concentration of 40 ug/ml. Fresh hydrogen peroxide (50 mM) was prepared from a 30% w/w solution (Sigma, H1009). Incubations were carried out in a water bath maintained at 37° C. Exact volumes varied depending on the catechol, but typically they comprised 1.92 ml PBS, 20 μl DMSO, 20 μl hydrogen peroxide and 20 μl drug in a 4 ml amber glass vial. Prior to addition of the drug, the vial was pre-incubated for 10 min. The reaction was initiated by the addition of 20 μl HRP. Samples (100 μl) were then removed at intervals, added to 100 μl acetonitrile and placed on ice. At the end of the incubation, samples were centrifuged (12000 g, 1 min) to remove precipitated protein and the supernatants placed in polypropylene hplc vials for analysis. Control incubations containing no HRP were carried out in the same way.
HPLC was performed using a Waters 2695 Separations Module with a sample compartment maintained at 10° C., and a Waters 2996 Photodiode Array Detector. The column was an ACE C18, 3 μm particle size, 125×3 mm (Hichrom) maintained at 30° C. Compounds were eluted with varying proportions of A: 5 mM KH2PO4, 5 mM H3PO4, and B: 75% acetonitrile, 25% water at a flow rate of […], in order to achieve a similar starting peak area for each catechol. Occasionally, in order to achieve a better resolution of the products, the latter was replaced with 100% methanol. Spectral data was collected from 220 nm to 500 nm, sampling rate 2/sec, 1.2 nm resolution. Data was analysed using Waters Millennium software.
Results: The loss of peak area at 300 nm of the prodrug was plotted against time, and a straight line fitted to the data. Loss of peak area was used to approximate the relative rates of loss of each catechol. The slope of the line-of-best-fit was then divided by the HRP concentration to give a corrected disappearance (see Table 3).

tumor cells = experiment: Tumor cell cytotoxicity, MTT assay; assay type: cell-based; settings: tumor cells treated for 24 hours
Procedure: Exponentially growing tumor cells were treated with the following compounds for 24 hours. Insoluble compounds were formulated in a small amount (0.3%) of DMSO for biological evaluation. Cell viability was determined by the calorimetric MTT assay using 3(4,5-dimethylthiazol-2-yl)-2,5-diphenyl-2H-tetrazolium bromide according to well-established procedures (see Berridge, et al. (1996) for a general protocol of this type of assay).

MHEC-5T tumors = experiment: Reduction in tumor blood flow / functional tumor vessels (fluorescent beads); assay type: in vivo, mice; settings: for Blood Flow at 10 mg/kg (% vessel area of control): MHEC-5T tumor-bearing SCID mice, 24 hours after dosing
Procedure: (§1) Catechols were dissolved in 50% DMSO (2 mg/kg) prior to intravenous (iv) administration (i.v.) to tumor-bearing mice. MHEC-5T tumors were established by subcutaneous injection of 0.5×10^6 cultured MHEC5-T cells (German Collection of Microorganisms and Cell Culture, Braunschweig, Germany) into the right flank of Fox Chase CB-17 severe combined immunodeficient (SCID) mice. Tumor grafts grew palpable within one week and reached the limited size (15×15 mm) within 10 days. Tumor bearing mice were injected intraperitoneally with saline control or various dosages of CA1P or CA4P after the transplanted tumor reached a size of 300 mm^3 (a size without development of necrosis). Twenty-four hours later they were injected with 0.25 ml of fluorescent FluoSphere beads (0.1 μm beads conjugated with blue fluorescent tag (F-8789, Molecular Probes, Eugene, Oreg.) and diluted 1:6 in physiological saline) in the tail vein, and sacrificed after 3 minutes. Tumors were then excised for cryosections. Cryosections of 8 μm thickness were directly examined under a fluorescent microscope. Functional blood vessels were indicated by blue fluorescence from injected microbeads. For quantification, three sections from three tumors treated in each group were examined and in each section, more than 70% of the area was automatically recorded with a microscopic digital camera at ×10 magnification. A computer program named Stage Pro (Media Cybernetics, Md.) was used to control the picture recording. Image analysis was performed with Image Plus software (Media Cybernetics, Md.). The results were expressed as vessel area per mm^2 in percentage of the control in Table 2.
as §1, with “The effect of CA1P on tumor blood flow was evaluated by quantifying the number of functional tumor vessels” for “Catechols were dissolved”, “treated murine tumors.” for “50% DMSO (2 mg/kg) prior to intravenous (iv) administration (i.v.) to tumor-bearing mice.”, “as in Example 4c.” for “by subcutaneous injection of 0.5×10^6 cultured MHEC5-T cells (German Collection of Microorganisms and Cell Culture, Braunschweig, Germany) into the right flank of Fox Chase CB-17 severe combined immunodeficient (SCID) mice. Tumor grafts grew palpable within one week and reached the limited size (15×15 mm) within 10 days.”, “MD)” for “Md.)”, “MD).” for “Md.).”, “control.” for “control in Table 2.”

Purified tubulin = experiment: Inhibition of tubulin polymerization (turbidimetric, 350 nm); assay type: biochemical; settings: purified tubulin 1 mg/ml, read-out: Tubulin Binding (uM IC50)
Procedure: The method of Verdier-Pinard (1998, Molec. Pharmacol. 53, 62-76) was used to assay catechol compounds for inhibition of tubulin polymerization. Tubulin polymerization was followed turbidimetrically at 350 nm on an Agilent 8453 spectrophotometer equipped with a kinetics program, a jacketed cell holder, and two microprocessor-controlled water baths. Purified tubulin (1 mg/ml) was induced to polymerize in a monosodium glutamate/GTP solution by a jump in temperature. Absorbance was recorded every 10 seconds and the data was analyzed by a GraphPad Prism program.

[3] = system: murine adenocarcinoma CaNT; experiment: Tumor growth control in CaNT murine tumor model; assay type: in vivo, mice; settings: single doses of 100, 200, and 400 mg/kg i.p., FIG. 5
Procedure: The murine adenocarcinoma CaNT was grown subcutaneously on the back of 12- to 16-week old CBA/Gy fTO mice. Tumors were initiated by the injection of 0.05 ml of a crude tumor cell suspension prepared from a donor mouse. Animals were selected for treatment after 3 or 4 weeks, when tumors had reached a geometric mean diameter of 5 to 6.5 mm. CA1P and CA4P were dissolved in 0.9% saline at various concentrations and injected intraperitoneally into tumor bearing mice. Each treatment group consisted of between five and nine mice. A control treatment group was injected with 0.9% saline.

[4] = system: murine adenocarcinoma CaNT; experiment: Functional vascular volume of tumor vessels (Hoechst 333342); assay type: in vivo, mice
Procedure: The effect of CA1P on tumor blood flow was evaluated by quantification of the functional volume of tumor vessels in treated murine tumors using a procedure previously described in detail and incorporated by reference herein (Smith K A, Br. J. Cancer, 57:247-253, 1988). The murine adenocarcinoma CaNT was grown subcutaneously on the back of 12- to 16-week old CBA/Gy fTO mice. Tumors were initiated by the injection of 0.05 ml of a crude tumor cell suspension prepared from a donor mouse. Animals were selected for treatment after 3 or 4 weeks, when tumors had reached a geometric mean diameter of 5 to 6.5 mm. CA1P and CA4P were dissolved in 0.9% saline at various concentrations and injected intraperitoneally into tumor bearing mice. Each treatment group consisted of between five and nine mice. A control treatment group was injected with 0.9% saline. At 24 hours post-injection, each mouse was injected intravenously with a 10 mg/kg dose of the fluorescent DNA-binding dye Hoechst 333342 and sacrificed 1 minute later. Tumors were immediately excised and bisected. Frozen tumor sections were cut at three levels and viewed under UV excitation where the fluorescent staining of perivascular cells identified perfused vessels. Vascular volumes were quantified based on a random point scoring system previously described and incorporated by reference herein (Chalkley H W, J. Natl Cancer Institute, 4: 47-53, 1943). All estimates were based on counting 100 fields from sections cut at each of the 3 different levels and the calculated vascular volumes were expressed as a percentage of the mean value for control tumors.

Structure (SMILES)	Relative Activation (% Control) [2] [% Control]	Slope/Hrp [2]	IC50 (tumor cells; 24 h) [µM]	other results
COc1ccc(/C=C\c2cc(OC)c(OC)c(OC)c2)cc1O [CA-4, Combretastatin A-4]	–	–	–	tubulin binding activity (tubulin): potent; solubility in human plasma [1]: insolubility
COc1cc(/C=C\c2cc(-c3ccccc3)cc(O)c2O)cc(OC)c1OC [ZSB-80, 4-Phenyl-6-[(Z)-2-(3,4,5-trimethoxyphenyl)vinyl]-1,2-dihydroxybenzene]	0.017	−2158250	–	IC50 (tumor cells): 1.56 µM
COc1cc(/C=C\c2ccc([N+](=O)[O-])c(O)c2O)cc(OC)c1OC	–	−1902300	0.28	–
COc1cc(/C=C\c2cccc(OP(=O)([O-])[O-])c2OP(=O)([O-])[O-])cc(OC)c1OC.[Na+].[Na+].[Na+].[Na+] [ZSB-36, 2′,3′diphosphate-3,4,5-trimethoxy-(Z)-stilbene, tetrasodium salt]	–	–	–	Blood Flow at 10 mg/kg (% vessel area of control) (MHEC-5T tumors): 94 % vessel area of control; IC50 (tumor cells): 0.4 µM
COc1cc(/C=C\c2ccc(F)c(O)c2O)cc(OC)c1OC	0.006	−6675900	0.546	–
CCc1ccc(/C=C\c2cc(OC)c(OC)c(OC)c2)c(O)c1O [ZSB-76, 3-Ethyl-6-[(Z)-2-(3,4,5-trimethoxyphenyl)vinyl]-1,2-dihydroxybenzene]	6.743	−5502	0.542	–
COc1cc(/C=C\c2cc(Br)cc(O)c2O)cc(OC)c1OC [ZSB-74, 4-Bromo-6-[(Z)-2-(3,4,5-trimethoxyphenyl)vinyl]-1,2-dihydroxybenzene]	0.203	−182825	0.34	IC50 (Purified tubulin): 2.1 µM
COc1cc(/C=C\c2cccc(O)c2O)cc(OC)c1OC [ZSB-82, 6-[(Z)-2-(3,4,5-Trimethoxyphenyl)vinyl]-1,2-dihydroxybenzene]	0.029	−1269800	0.143	IC50 (Purified tubulin): 6.2 µM
C=CCc1ccc(/C=C\c2cc(OC)c(OC)c(OC)c2)c(O)c1O [ZSB-77, 3-Allyl-6-[(Z)-2-(3,4,5-trimethoxyphenyl)vinyl]-1,2-dihydroxybenzene]	1.875	−19783	0.748	–
COc1cc(/C=C\c2ccc(C)c(O)c2O)cc(OC)c1OC [ZSB-75, 3-Methyl-6-[(Z)-2-(3,4,5-trimethoxyphenyl)vinyl]-1,2-dihydroxybenzene]	1.703	−21783	0.9	–
CCOc1ccc(/C=C\c2cc(OC)c(OC)c(OC)c2)c(O)c1O [ZSB-81]	–	–	–	IC50 (tumor cells): 0.094 µM
COc1ccc(/C=C\c2cc(OC)c(OC)c(OC)c2)cc1OP(=O)([O-])[O-].[Na+].[Na+] [CA4P, Combretastatin A-4 Disodium Phosphate Prodrug, reference compound]	–	–	–	ED50 (vascular effect) (MHEC-5T tumors; functional vessel number per mm^2, i.p., 24 hr, MHEC-5T tumors): 43 mg/kg; blood flow in the central region of tumors (MHEC-5T tumors; spatial distribution of blood vessel shutdown): blood flow reduction; effect on tumor growth [3]: no measurable effect on tumor growth; effect on vascular volume ([4]; doses below 50 mg/kg i.p.): no significant effect; dose required to produce an effect similar to that of 1 mg/kg of CA1P ([4]; functional vascular volume): 25 mg/kg
C=CCOc1ccc(/C=C\c2cc(OC)c(OC)c(OC)c2)c(O)c1O	–	−16925	0.007	Blood Flow at 10 mg/kg (% vessel area of control) (MHEC-5T tumors): 60 % vessel area of control
COc1cc(/C=C\c2ccc(O)c(O)c2O)cc(OC)c1OC	–	–	0.069	Blood Flow at 10 mg/kg (% vessel area of control) (MHEC-5T tumors): 26.7 % vessel area of control
